Legend:
MRSA USA 400 = assay: Time-kill assay; type: cell-based, Staphylococcus aureus; settings: 5×MIC; for time required for complete eradication of the bacterial count: MRSA USA 400, 24-hour incubation
Description: In order to the mode of killing of methylene lactone compounds, a time kill assay was performed against MRSA USA 400 as described previously. MRSA USA400 cells in logarithmic growth phase (OD600˜1.00) were diluted to 6.03×10^6 colony-forming units (CFU/mL) and exposed to concentrations equivalent to 5×MIC (in triplicate) of 148, 149, 151, 155, 158 and vancomycin in Tryptic soy broth. Aliquots (100 μL) were collected from each treatment after 0, 2, 4, 6, 8, 12, and 24 hours of incubation at 37° C. and subsequently serially diluted in PBS. Bacteria were then transferred to Tryptic soy agar plates and incubated at 37° C. for 18-20 hours before viable CFU/mL was determined (FIG. 1).
DMSO (solvent for the compounds) served as a negative control and vancomycin served as a control drug. The error bars represent standard deviation values obtained from triplicate samples used for each compound/antibiotic studied.

[1] = tested on: total proteases production in MRSA USA300; assay: Inhibition of staphylococcal total proteases production, skimmed milk method; type: cell-based, Staphylococcus aureus; settings: MRSA USA300, 0.25×MIC, untreated = 100%
Description: The modified skimmed milk method was utilized to investigate the protease inhibitory activities of BHS compounds as described previously. In brief, overnight culture of MRSA300 in TSB, with and without subinhibitory concentrations of compounds (in triplicate), was centrifuged at 14000×g for 10 minutes. Then, a total volume of 500 μL of culture supernatant was incubated with 1 mL skimmed milk (1.25%) at 37° C. for 1 hour. Afterwards, the OD600 was measured to indicate the degree of clearance of skimmed milk. Higher OD values indicate lower proteolytic activity and greater protease inhibitory activity.
FIG. 4. Influence of BHS compounds on the staphylococcal total protease production. OD600 was measured following overnight culturing of MRSA USA300 in TSB in presence and absence of 0.25×MIC of 148, 149, 155, 158 and vancomycin followed by incubation of supernatants with skim milk for 1 hour at 37° C. The Data are presented as percent production (means±standard deviation). DMSO (the solvent for the compounds that served as a negative control). Vancomycin served as the control antibiotic. The values represent an average (means±standard deviation) of four samples analyzed for each compound/antibiotic. Error bars represent standard deviation values. An asterisk (*) denotes statistical significance (P<0.05) between results for compounds 148, 149, 155, 158 and vancomycin analyzed via unpaired t test ([…]).

[2] = tested on: intracellular MRSA USA400 inside murine macrophage (J774) cells; assay: Clearance of intracellular MRSA in infected J774 macrophages; type: cell-based, Staphylococcus aureus; settings: 24 hours, J774 infected with MRSA USA400
Description: The ability of the compound 148 to reduce the burden of intracellular MRSA was evaluated utilizing previously described methods. Murine macrophage cells (J774) were cultured in Dulbecco's Modified Eagle Medium (DMEM) supplemented with 10% FBS at 37° C. with CO2 (5%). J774 cells were exposed to MRSA USA400 cells at a multiplicity of infection of approximately 10:1. After 1 hour of infection, J774 cells were washed with gentamicin (200 μg/mL) to kill extracellular MRSA. The compounds or vancomycin (at 4×MIC and 8×MIC) were subsequently added to each well (four replicates per test agent). Control cells received DMSO at a concentration equal to that in drug-treated cell samples. After 24 hours-incubation at 37° C. with 5% CO2, the test agents were removed. J774 cells were washed and subsequently lysed using 0.1% Triton-X. The solution was serially diluted in phosphate-buffered saline and transferred to TSA plates in order to determine viable MRSA CFU inside the J774 cells. Plates were incubated at 37° C. for 18-22 hour before counting viable CFU/mL. Statistical significance was assessed with two-way ANOVA, with post hoc Dunnet's multiple comparisons test (P<0.05), utilizing GraphPad Prism 6.0 (GraphPad Software, La Jolla, Calif.).
FIG. 6. Examination of the activity of compounds 148 on the clearance of intracellular MRSA present inside infected murine macrophage (J774) cells. […] Data were analyzed via two-way ANOVA, with post hoc Dunnet's multiple comparisons test (P<0.05), utilizing GraphPad Prism 6.0 (GraphPad Software, La Jolla, Calif.). Asterisks (*) represent significant difference between treatment of J774 cells with compound 148 in comparison to vancomycin.

[3] = tested on: human colorectal adenocarcinoma (Caco-2) cell; assay: In vitro cytotoxicity, MTS assay; type: cell-based
Description: Compounds 144, 148, 151, 155, 158, and 187 were assayed (at concentrations of 16, 32, and 64 μg/mL) against a human colorectal adenocarcinoma (Caco-2) cell to determine the potential toxic effect to mammalian cells in vitro. Briefly, cells were cultured in Dulbecco's Modified Eagle Medium (DMEM) supplemented with 10% fetal bovine serum (FBS), non-essential amino acids (1×), penicillin-streptomycin at 37° C. in presence of 5% CO2. Control cells received DMSO alone at a concentration equal to that in drug-treated wells. The cells were incubated with the compounds (in triplicate) in a 96-well plate at 37° C. with 5% CO2 for two hours. This was followed by the subsequent addition of the assay reagent MTS 3-(4,5-dimethylthiazol-2-yl)-5-(3-carboxymethoxyphenyl)-2-(4-sulfophenyl)-2H-tetrazolium) (Promega, Madison, Wis., USA) and the plate was incubated for three to four hours. Absorbance readings (at OD490) were recorded using a kinetic microplate reader (Molecular Devices, Sunnyvale, Calif., USA). The quantity of viable cells after treatment with each compound was expressed as a percentage of the viability of DMSO-treated control cells (average of triplicate wells±standard deviation).
FIG. 3. Analyzing the toxicity of 144, 148, 151, 155, 158, and 187 compounds (tested in triplicates at 16, 32 and 64 μg/mL) against human colorectal cells (Caco-2) using the MTS 3-(4,5-dimethylthiazol-2-yl)-5-(3-carboxymethoxyphenyl)-2-(4-sulfophenyl)-2H-tetrazolium) assay. Results are presented as percent viable cells relative to DMSO (negative control) to determine a baseline measurement for the cytotoxic impact of each compound. The absorbance values represent an average of three samples analyzed for each compound. Error bars represent standard deviation values. The data were analyzed via a two-way ANOVA with post-hoc Dunnett's test for multiple comparisons. An asterisk (*) denotes statistical significance (P<0.05) between results for compounds and DMSO.

| Compound | time required for complete eradication of the bacterial count (MRSA USA 400) | total protease production [1] | reduction in the bacterial count after 6 hours (MRSA USA 400; MRSA USA 400, after 6 hours) | reduction in the bacterial count after 6 hours (percent) (MRSA USA 400; MRSA USA 400, after 6 hours) | reduction of intracellular MRSA ([2]; 4 μg/mL) | reduction of intracellular MRSA (percent) ([2]; 4 μg/mL) | reduction of intracellular MRSA ([2]; 8 μg/mL) | reduction of intracellular MRSA (percent) ([2]; 8 μg/mL) | viable cells ([3]; Caco-2, at 32 μg/mL, relative to DMSO) | non-toxic concentration to Caco-2 cells ([3]; Caco-2, two hours incubation, MTS) |
| --- | --- | --- | --- | --- | --- | --- | --- | --- | --- | --- |
| C=C1C(=O)O[C@H](c2ccccc2)[C@@H]1c1cccc2ccccc12 [Compound 151] | 2 h |  |  |  |  |  |  |  |  |  |
| C=C1C(=O)O[C@H](c2ccc3ccccc3c2)[C@@H]1c1ccc2ccccc2c1 [Compound 158] | 2 h | 56% |  |  |  |  |  |  |  |  |
| C=C(C(=O)OC)C(c1ccc2ccccc2c1)C(O)c1cccc2ccccc12 (stereo not drawn) [Compound 148] | 12 h | 87% | 3 log10 | 99.9% | 0.8 log10 | 84.9% | about 2.52 log10 | 99.7% |  |  |
| C=C1C(=O)O[C@H](c2cccc3ccccc23)[C@@H]1c1ccc2ccccc2c1 [Compound 155] | 2 h | 65% |  |  |  |  |  |  | 100% | ≤ 32 µg/mL |
